From publication PMC7961786, “Magic Peptide: Unique Properties of the LRR11 Peptide in the Activation of Leukotriene Synthesis in Human Neutrophils” (International Journal of Molecular Sciences, 2021)
Values belong to the molecule of their own block, whether it stands above or below them.

Tests used:
[1] = tested on: human neutrophils (PMNLs), 5-LOX product synthesis; experiment: 5-LOX metabolite synthesis in human neutrophils stimulated with opsonized S. typhimurium (HPLC); type: cell-based
Procedure: Figure 1 Effects of LRR11 and ODNs on the formation of LTB4 (A,B) and the sum of 5-LOX metabolites (ω-OH-LTB4, LTB4 and its isomers, and 5-HETE) (C) in human PMNLs. PMNLs (2 × 10^7) were incubated for 15 min at 37 °C without (black bars) or with 1 μM LRR11 (A, LRR11_first); then ODNs and LRR11 or LPS were added; various ways of adding ODN and LRR11 peptide are indicated. In control samples, Hanks’ solution was added instead of ODNs. After 20 min, 0.5 × 10^9 S. typhimurium bacterial cells were added for a further 15 min. The 5-LOX products were determined using HPLC. Values indicate mean ± SEM of five independent experiments performed in duplicate. * p < 0.05, ** p < 0.01, *** p < 0.005, compared with the control. # p < 0.05, ## p < 0.01 for pairs of data compared as indicated by two-way ANOVA followed by Tukey’s multiple comparison test.
Figure 3 Synthesis of the 5-LOX metabolites in PMNLs exposed to opsonized S. typhimurium bacteria in the presence of the RAGE antagonist FPS-ZM1. PMNLs (2 × 10^7) were incubated for 15 min at 37 °C without additives or with 0.15 µM FPS-ZM1, for the next 20 min the mixture was incubated with 1 µM ODNs without (black bars) or with 1 µM LRR11 (gray bars) before adding 5 × 10^8 S. typhimurium for 15 min. In control samples, Hanks’ solution was added instead of ODNs. The 5-LOX products were determined using HPLC. Graphical data are presented for LTB4 (A) or the sum of LTB4 and its isomers, ω-OH-LTB4 and 5-HETE, designed as Σ5LOX products (B).
Human neutrophils were isolated from freshly taken citrate-anticoagulated peripheral blood from healthy individuals using standard methods. Leukocyte-rich plasma was prepared by sedimentation of erythrocytes with 3% dextran T-500 at room temperature. For purification of granulocytes, centrifugation through Ficoll-Paque (density 1.077 g/mL) was used, followed by hypotonic lysis of the remaining erythrocytes. […] All methods were performed in accordance with the relevant instructions and regulations of the Ministry of Health of the Russian Federation and local legislation.
Bacteria (S. typhimurium IE 147 strain) obtained from the Collection of Gamaleya National Research Center of Epidemiology and Microbiology (Moscow, Russia) were grown in Luria–Bertani broth to a concentration of 1 × 10^9 colony-forming units (CFU)/mL. The bacteria were collected by centrifugation at 2000 g and opsonized immediately before the experiment for 30 min in 20% (v/v) fresh serum from the same donor whose blood was used to isolate neutrophils. Repeated centrifugation in Dulbecco’s solution was used to wash the bacteria.
The cell suspension (2 × 10^7 PMNLs in HBSS/HEPES, reaction volume of 6 mL) was cultured for 15 min in an incubator at 37 °C, 5% CO2. Then 1.0 µM ODN with or without 1.0 µM LRR11, or 2 µg/mL LPS, was added as indicated. After 20 min, the cells were stimulated with S. typhimurium (the ratio of bacteria to PMNLs was approximately 20:1) for the next 15 min [3]. The synthesis of 5-LOX metabolites was stopped by adding an equal volume of methanol at −20 °C with prostaglandin B2 as an internal standard. Samples were stored at −20 °C. The denatured cell suspension was centrifuged, and supernatants designated as water/methanol extracts.
To purify the water/methanol extracts, solid-phase extraction was used on Sep-Pak C18 cartridges (500 mg; Macherey-Nagel, Dueren, Germany), which were conditioned first with methanol, and then with water. Major 5-LOX metabolites were identified by comparing retention times with those of known compounds, as previously described.
Table S1. Effect of Chloroquine on 5-LOX product formation in PMNLs after ODN priming followed by the addition
of opsonized S. typhimurium bacteria.

5′-biotinylated B-CpG = experiment: TSM acoustic biosensor, peptide binding to immobilized B-CpG
Description: To characterize the interaction of the studied synthetic ODNs with the LRR11 peptide, we applied the thickness shear mode (TSM) acoustic biosensor method, which is based on the investigation of ultrasonic waves in piezoelectric materials such as AT-cut quartz. This approach involved immobilizing a 5′-biotinylated ODN on the surface of TSM transducer covered by NeutrAvidin and then adding the LRR11 peptide. An unrelated peptide (URP) with a random primary structure ([…]) was used as a negative control. The measurement procedure was divided into several steps, in which each immobilization stage was followed by washing with an appropriate buffer solution; when peptide solutions at different concentrations (from 1 to 100 nM) were added to the surface-modified TSM transducer, a wash with Hanks buffer was used before increasing the peptide concentration.
Based on Langmuir isotherm Equation (1), (1) Δfcc=Δfsmaxc/KD+c where Δfs(c) is the frequency change at a certain peptide concentration under equilibrium conditions, (Δfs)max is the maximum frequency change, c is the peptide concentration, and KD is the equilibrium constant of dissociation, we estimated the (Δfs)max and KD values for binding of the LRR11 peptide to C-CpG and B-CpG (Table 3).
Eight MHz AT-cut piezoelectric quartz crystal transducer was obtained from CH Instruments, Austin, TX, USA. The transducer was covered on both sides with thin layers of gold that served as electrodes (working area 0.2 cm^2). Prior ODNs immobilization, the crystal was carefully cleaned with basic Piranha solution (29% NH3, 30% H2O and H2O2 with volumetric 1:5:1 ratio, respectively) for 25 min. After the thorough cleaning, the crystal was positioned between two silicon O-rings in a flow-through cell. The analyte was injected into the cell using a Genie Plus syringe pump (Kent Scientific, Torrington, CT, USA) at a flow rate of 50 μL/min. Each solution was applied until the resonance frequency stabilized. The surface of the transducer was first washed with deionized water, and then 125 μg/mL NeutrAvidin (WWR International GmbH, Vienna, Austria) solution in water was applied. Approximately 15 min were required to stabilize the signal at a constant NeutrAvidin flow rate. This was followed by washing with water to rinse out all non-chemisorbed NeutrAvidin molecules. Immobilization of ODN on the gold surface of the crystals is accomplished using avidin–biotin interactions. A 1 μM 5′-biotinylated ODN solution was injected over the neutravidin-modified surface and subsequently the crystal was washed again with water. The system was then equilibrated using Hanks buffer solution. This buffer was suitable for studying LRR11–ODN binding. Then LRR11 was used at concentrations of 1, 5, 10, 50 and 100 nM […] in Hanks buffer. After each addition of LRR11, the sensor surface was washed with Hanks buffer and LRR11 with the higher concentration was added. All binding experiments were carried out at room temperature. Buffer and sample solutions were introduced in a flow-through format. A network analyzer 8712ES (Agilent Technologies, Santa Clara, CA, USA) was used to measure the impedance properties of the sensor and determine fS and Rm.

RAGE = settings: ref [53]; cited from earlier work
Description: Most likely, CpG-ODN can serve as a linker between various receptor molecules of neutrophils. We hypothesize that some receptors on the cell surface have a multivalent ability to bind a broad spectrum of ligands, including ODNs, and that the stimulatory action of LRR11 on the CpG-ODNs may be related to cooperation with other receptors on the neutrophil surface.

[2] = tested on: human monocytes, leukotriene production; settings: RAGE-dependent pathway; ref [55]; cited from earlier work
Description: (§1) RAGE is shown to bind molecules, known as damage-associated molecular patterns (DAMPs), released by cells that die or are under conditions of inflammation.

[3] = tested on: vascular smooth muscle cells; settings: ref [56]; cited from earlier work
Description: as §1

KA (5′-biotinylated B-CpG; LRR11-B-CpG complex, KA = 1/KD): 0.018 ± 0.006 nM⁻¹
−(Δfs)max (5′-biotinylated B-CpG; LRR11 to immobilized B-CpG, Langmuir fit, Hanks buffer, room temperature, LRR11 1-100 nM, three independent experiments): 26.6 ± 3.8 Hz
Molecule: 5′-tcgtcgttttgtcgttttgtcgtt-3′ [B-CpG]
effect on 5-LOX activity / leukotriene synthesis ([1]; ODN alone, 1 µM, 20 min, then opsonized S. typhimurium 15 min, Figure 1, five independent experiments in duplicate): increased leukotriene synthesis
Σ 5-LOX metabolites ([1]; Table S1, 2×10^7 PMNLs, 15 min at 37 °C without or with 5 µM Chloroquine, then ODN, after 20 min 0.5×10^9 opsonized S. typhimurium for 15 min, mean ± SEM, three independent experiments): 43.9 ± 4.1 ng/107 PMNLs
degradation of RAGE receptor after RAGE binding (RAGE): promoted rapid lysosomal degradation of the receptor

B1: HMGB1: High-Mobility Group Box 1 (HMGB1) protein, a DAMP (protein, UniProt P09429 1-215, looked up)
High mobility group protein B1: MGKGDPKKPRGKMSSYAFFVQTCREEHKKKHPDASVNFSEFSKKCSERWKTMSAKEKGKFEDMAKADKARYEREMKTYIPPKGETKKKFKDPNAPKRPPSAFFLFCSEYRPKIKGEHPGLSIGDVAKKLGEMWNNTAADDKQPYEKKAAKLKEKYEKDIAAYRAKGKPDAAKKGVVKAEKSKKKKEEEEDEEDEEDEEEEEDEEDEDEEEDDDDE
leukotriene production in human monocytes [2]: induce leukotriene production in human monocytes through a RAGE-dependent pathway
RAGE expression / LTB4 production in vascular smooth muscle cells [3]: enhanced RAGE expression along with an increase in LTB4 production
